What all share (type): biochemical
In one test the target is T1, TYK2 (Homo sapiens, UniProt P29597).
T1 construct: JAK1 (aa 850-1154) and TYK2 (aa 871-1187) are expressed with an N-terminally fused GST-tag; GST (N); purchased Carna Biosciences, Inc; host or cells: baculovirus expression system
T1 sequence (P29597 871-1187): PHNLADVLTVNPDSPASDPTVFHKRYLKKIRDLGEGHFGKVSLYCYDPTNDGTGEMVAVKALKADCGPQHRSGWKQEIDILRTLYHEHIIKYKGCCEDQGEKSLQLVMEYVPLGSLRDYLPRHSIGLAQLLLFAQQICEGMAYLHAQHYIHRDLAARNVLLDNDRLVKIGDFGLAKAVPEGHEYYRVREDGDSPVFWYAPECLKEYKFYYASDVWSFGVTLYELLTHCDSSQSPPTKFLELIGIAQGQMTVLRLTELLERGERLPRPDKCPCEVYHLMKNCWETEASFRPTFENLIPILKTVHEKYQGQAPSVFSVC
Briefly: TYK2 kinase assay (HTRF, inhibition of phosphorylation of a synthetic peptide). Particulars: catalytic domain aa 871-1187, GST-tag; 13 μM ATP (Km); read-out: TYK2 kinase inhibitory activity (EC50). The method, then: JAK1, JAK2, JAK3 and TYK2 Kinase Assays:
Human baculovirus-expressed JAK1, 2, 3 and TYK2 were purchased from Carna Biosciences, Inc. All four purified enzymes contain only the catalytic domain. JAK1 (aa 850-1154) and TYK2 (aa 871-1187) are expressed with an N-terminally fused GST-tag, and JAK2 and JAK3 with an N-terminally fused His-tag. Inhibition of phosphorylation of a synthetic peptide was measured in an HTRF-based assay using the TK substrate-Biotin from the CisbioHTRFKinEASE TK kit. First, 2 μl of TK solution (TK substrate-biotin in kinase buffer [1× enzymatic buffer from HTRFKinEASE TK kit, 1 mM DTT]) is added to a plate containing 1 μl prediluted compound (final assay concentration DMSO: 0.75%). Then, 5 μl kinase-ATP mix (prepared in kinase buffer) is added to the wells and the plates are incubated at RT for 20-30 min. For all four kinases a concentration of ATP that corresponded to the Km for ATP was used. The final concentrations of buffers, substrate, kinase and ATP were: JAK1: 50 mMHepes buffer pH 7.0, 0.01% BSA, 10 mM MgCl2, 1 mM DTT, 7 μM ATP, 50 nMSEB, 1 μM TK Substrate-Biotin and 5 ng JAK1; JAK2: 50 mM Hepes buffer pH 7.0, 0.01% BSA, 5 mM MgCl2, 1 mM DTT, 4 μM ATP, 1 μM TK Substrate-Biotin and 0.1 ng JAK2; JAK3: 50 mMHepes buffer pH 7.0, 0.01% BSA, 5 mM MgCl2, 1 mM DTT, 2 μM ATP, 1 μM TK Substrate-Biotin and 0.3 ng JAK3; TYK2: 50 mMHepes buffer pH 7.0, 0.01% BSA, 5 mM MgCl2, 1 mM DTT, 13 μM ATP, 50 nMSEB, 1 μM TK Substrate-Biotin and 0.8 ng TYK2. Thereafter, the kinase reaction is stopped by adding 4 μl detection mix (final concentrations: 50 mM Hepes buffer pH 7.0, 0.01% BSA, 0.8 M KF, 20 mM EDTA, 42 nM Streptavidin-XL665 and 1:400 STKAbCryptate) and the plates are incubated overnight in the dark. The HTRF signal is read using an Envision plate reader.

In another test the target is T2, JAK2 (Homo sapiens, UniProt O60674).
T2 construct: All four purified enzymes contain only the catalytic domain; His (N); purchased Carna Biosciences, Inc; host or cells: baculovirus expression system
Briefly: JAK2 kinase assay (HTRF, inhibition of phosphorylation of a synthetic peptide). Particulars: catalytic domain, His-tag; 4 μM ATP (Km); read-out: JAK2 kinase inhibitory activity (EC50). In a few lines:
(§1)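 Baculovirus-expressed human catalytic domains (GST-JAK1, GST-TYK2, His-JAK2, His-JAK3) phosphorylated 1 μM TK substrate-biotin at ATP Km (JAK1 7 μM, JAK2 4 μM, JAK3 2 μM, TYK2 13 μM) in pH 7.0 Hepes for 20-30 min at RT, 0.75% DMSO. EDTA stop, then overnight streptavidin-XL665/cryptate-antibody detection and HTRF read.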
A general note: Time-resolved FRET reads energy transfer from a long-lived donor to a nearby acceptor.

A further test has as its target T3, JAK1 (Homo sapiens, UniProt P23458).
T3 construct: JAK1 (aa 850-1154) and TYK2 (aa 871-1187) are expressed with an N-terminally fused GST-tag; GST (N); purchased Carna Biosciences, Inc; host or cells: baculovirus expression system
The test is described as follows: JAK1 kinase assay (HTRF, inhibition of phosphorylation of a synthetic peptide). Particulars: catalytic domain aa 850-1154, GST-tag; 7 μM ATP (Km); read-out: JAK1 kinase inhibitory activity (EC50). In a few lines:
as §1

In another test the target is T4, JAK3 (Homo sapiens, UniProt P52333).
T4 construct: All four purified enzymes contain only the catalytic domain; His (N); purchased Carna Biosciences, Inc; host or cells: baculovirus expression system
Briefly: JAK3 kinase assay (HTRF, inhibition of phosphorylation of a synthetic peptide). Particulars: catalytic domain, His-tag; 2 μM ATP (Km); read-out: JAK3 kinase inhibitory activity (EC50). Summed up:
as §1

T2 sequence (O60674 849-1124 limits assumed): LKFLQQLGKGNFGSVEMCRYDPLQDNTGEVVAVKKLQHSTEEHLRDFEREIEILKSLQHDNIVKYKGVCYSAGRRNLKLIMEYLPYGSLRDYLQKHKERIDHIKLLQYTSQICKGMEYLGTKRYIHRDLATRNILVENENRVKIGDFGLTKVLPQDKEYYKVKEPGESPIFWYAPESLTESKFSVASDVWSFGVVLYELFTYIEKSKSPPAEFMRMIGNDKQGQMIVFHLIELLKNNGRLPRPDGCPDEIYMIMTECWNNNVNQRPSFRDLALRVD
T3 sequence (P23458 850-1154): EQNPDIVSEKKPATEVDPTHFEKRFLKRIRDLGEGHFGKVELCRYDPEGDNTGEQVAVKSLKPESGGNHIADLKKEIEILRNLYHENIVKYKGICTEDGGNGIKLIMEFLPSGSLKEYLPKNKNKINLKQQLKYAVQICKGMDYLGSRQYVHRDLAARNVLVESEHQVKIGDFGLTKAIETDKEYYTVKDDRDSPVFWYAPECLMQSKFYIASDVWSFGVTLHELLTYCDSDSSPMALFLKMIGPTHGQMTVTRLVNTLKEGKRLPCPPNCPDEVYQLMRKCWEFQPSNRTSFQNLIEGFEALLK
T4 sequence (P52333 822-1111 limits assumed): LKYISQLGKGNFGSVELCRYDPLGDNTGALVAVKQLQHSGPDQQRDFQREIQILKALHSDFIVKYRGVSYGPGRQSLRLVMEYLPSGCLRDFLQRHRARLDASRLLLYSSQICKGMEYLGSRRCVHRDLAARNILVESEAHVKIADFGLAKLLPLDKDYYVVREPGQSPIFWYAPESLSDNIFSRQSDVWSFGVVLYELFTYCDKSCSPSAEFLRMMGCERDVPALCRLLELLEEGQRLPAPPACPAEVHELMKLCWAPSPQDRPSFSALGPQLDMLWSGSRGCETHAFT

As a reminder, the EC50 is the concentration needed to bring the measured effect to its halfway point. Regarding `N#Cc1csc(C(=O)N2CCN(c3ncnc4[nH]ccc34)CC3(CC3)C2)c1` [Example 19, 5-[5-(7H-pyrrolo[2,3-d]pyrimidin-4-yl)-5,8-diazaspiro[2.6]nonane-8-carbonyl]thiophene-3-carbonitrile], the EC50 on TYK2 was greater than 1000 nM; at JAK2, less than 100 nM; at JAK1, 100 to 1000 nM; at JAK3 it was 100 to 1000 nM.
Consider `CCN(CC)S(=O)(=O)N1CCN(c2ncnc3[nH]ccc23)CC2(CC2)C1` [Example 104, N,N-diethyl-5-(7H-pyrrolo[2,3-d]pyrimidin-4-yl)-5,8-diazaspiro[2.6]nonane-8-sulfonamide], for which the EC50 on TYK2 was greater than 1000 nM; on JAK2, 100 to 1000 nM; at JAK1 it was greater than 1000 nM; at JAK3 it was greater than 1000 nM.
Regarding `O=C(c1ccsn1)N1CCCN(c2ncnc3[nH]ccc23)CC12CC2` [Example 201, isothiazol-3-yl-[5-(7H-pyrrolo[2,3-d]pyrimidin-4-yl)-5,9-diazaspiro[2.6]nonan-9-yl]methanone], the EC50 at TYK2 was 100 to 1000 nM; on JAK2 it was less than 100 nM; on JAK1 it was less than 100 nM; on JAK3, 100 to 1000 nM.
As to `Cc1c[nH]c(C(=O)N2CCCN(c3ncnc4[nH]ccc34)CC23CC3)c1` [Example 277, (4-methyl-1H-pyrrol-2-yl)-[5-(7H-pyrrolo[2,3-d]pyrimidin-4-yl)-5,9-diazaspiro[2.6]nonan-9-yl]methanone], the EC50 at TYK2 is 100 to 1000 nM; on JAK2, less than 100 nM; on JAK1, less than 100 nM; at JAK3 it was 100 to 1000 nM.
On to `N#Cc1csc(C(=O)N2CCCN(c3ncnc4[nH]ccc34)CC23CC3)c1` [Example 119, 5-[5-(7H-pyrrolo[2,3-d]pyrimidin-4-yl)-5,9-diazaspiro[2.6]nonane-9-carbonyl]thiophene-3-carbonitrile], for which the EC50 is 100 to 1000 nM at TYK2, less than 100 nM at JAK2, less than 100 nM at JAK1 and 100 to 1000 nM on JAK3.
For the molecule `N#Cc1ccc(C(=O)N2CCCN(c3ncnc4[nH]ccc34)CC23CC3)s1` [Example 120, 5-[5-(7H-pyrrolo[2,3-d]pyrimidin-4-yl)-5,9-diazaspiro[2.6]nonane-9-carbonyl]thiophene-2-carbonitrile], the EC50 at TYK2 was 100 to 1000 nM; at JAK2, less than 100 nM; on JAK1, less than 100 nM; at JAK3 it was less than 100 nM.
As for `N#CC1(C(=O)N2CCCN(c3ncnc4[nH]ccc34)CC23CC3)CC1` [Example 60, 1-[5-(7H-pyrrolo[2,3-d]pyrimidin-4-yl)-5,9-diazaspiro[2.6]nonane-9-carbonyl]cyclopropanecarbonitrile], the EC50 is greater than 1000 nM on TYK2, less than 100 nM at JAK2, 100 to 1000 nM on JAK1 and 100 to 1000 nM at JAK3.
With `COc1cc(S(N)(=O)=O)ccc1C(=O)N1CCN(c2ncnc3[nH]ccc23)CC2(CC2)C1` [Example 52, 3-methoxy-4-[5-(7H-pyrrolo[2,3-d]pyrimidin-4-yl)-5,8-diazaspiro[2.6]nonane-8-carbonyl]benzenesulfonamide], the EC50 at TYK2 was greater than 1000 nM; on JAK2, less than 100 nM; on JAK1, 100 to 1000 nM; on JAK3, 100 to 1000 nM.
As for `N#CC1(C(=O)N2CCN(c3ncnc4[nH]ccc34)CC3(CC3)C2)CCCC1` [Example 40, 1-[5-(7H-pyrrolo[2,3-d]pyrimidin-4-yl)-5,8-diazaspiro[2.6]nonane-8-carbonyl]cyclopentanecarbonitrile], the EC50 at TYK2 was greater than 1000 nM; on JAK2, 100 to 1000 nM; at JAK1 it was greater than 1000 nM; on JAK3, 100 to 1000 nM.
For `O=C(c1cnsn1)N1CCCN(c2ncnc3[nH]ccc23)CC12CC2` [Example 203, [5-(7H-pyrrolo[2,3-d]pyrimidin-4-yl)-5,9-diazaspiro[2.6]nonan-9-yl]-(1,2,5-thiadiazol-3-yl)methanone], the EC50 was 100 to 1000 nM on TYK2, less than 100 nM on JAK2, less than 100 nM on JAK1 and 100 to 1000 nM at JAK3.
Regarding `NS(=O)(=O)c1ccc(CC(=O)N2CCN(c3ncnc4[nH]ccc34)CC3(CC3)C2)s1` [Example 76, 5-[2-oxo-2-[5-(7H-pyrrolo[2,3-d]pyrimidin-4-yl)-5,8-diazaspiro[2.6]nonan-8-yl]ethyl]thiophene-2-sulfonamide], the EC50 on TYK2 is 100 to 1000 nM; at JAK2, less than 100 nM; at JAK1, less than 100 nM; at JAK3 it was less than 100 nM.
For the molecule `COc1ncccc1C(=O)N1CCN(c2ncnc3[nH]ccc23)CC2(CC2)C1` [Example 4, (2-Methoxypyridin-3-yl)-[8-(7H-pyrrolo[2,3-d]pyrimidin-4-yl)-5,8-diazaspiro[2.6]non-5-yl]methanone], the EC50 at TYK2, at JAK2, at JAK1 and at JAK3 was greater than 1000 nM in each case.
Take `NS(=O)(=O)c1ccc2[nH]c(C(=O)N3CCN(c4ncnc5[nH]ccc45)CC4(CC4)C3)cc2c1` [Example 101, 2-[5-(7H-pyrrolo[2,3-d]pyrimidin-4-yl)-5,8-diazaspiro[2.6]nonane-8-carbonyl]-1H-indole-5-sulfonamide]: the EC50 on TYK2 was 100 to 1000 nM; at JAK2, less than 100 nM; at JAK1, less than 100 nM; on JAK3 it was 100 to 1000 nM.
As to `Cc1cc(C(=O)N2CCN(c3ncnc4[nH]ccc34)CC3(CC3)C2)ccc1S(N)(=O)=O` [Example 29, 2-methyl-4-[5-(7H-pyrrolo[2,3-d]pyrimidin-4-yl)-5,8-diazaspiro[2.6]nonane-8-carbonyl]benzenesulfonamide], the EC50 at TYK2 was greater than 1000 nM; on JAK2, 100 to 1000 nM; on JAK1, 100 to 1000 nM; at JAK3 it was 100 to 1000 nM.
Regarding `N#Cc1ccc(CC(=O)N2CCCN(c3ncnc4[nH]ccc34)CC23CC3)cc1` [Example 59, 4-[2-oxo-2-[5-(7H-pyrrolo[2,3-d]pyrimidin-4-yl)-5,9-diazaspiro[2.6]nonan-9-yl]ethyl]benzonitrile], the EC50 on TYK2 was greater than 1000 nM; at JAK2, 100 to 1000 nM; at JAK1, 100 to 1000 nM; on JAK3 it was greater than 1000 nM.
For the molecule `N#Cc1ccc2[nH]c(C(=O)N3CCN(c4ncnc5[nH]ccc45)CC4(CC4)C3)cc2c1` [Example 8, 2-[8-(7H-pyrrolo[2,3-d]pyrimidin-4-yl)-5,8-diazaspiro[2.6]nonane-5-carbonyl]-1H-indole-5-carbonitrile], the EC50 at TYK2 is greater than 1000 nM; at JAK2, 100 to 1000 nM; at JAK1, less than 100 nM; on JAK3, 100 to 1000 nM.
As for `O=C(Cc1ccc(OC(F)(F)F)cc1)N1CCN(c2ncnc3[nH]ccc23)CC2(CC2)C1` [Example 274, 1-[5-(7H-pyrrolo[2,3-d]pyrimidin-4-yl)-5,8-diazaspiro[2.6]nonan-8-yl]-2-[4-(trifluoromethoxy)phenyl]ethanone], the EC50 at TYK2 was greater than 1000 nM; at JAK2 it was less than 100 nM; on JAK1, less than 100 nM; at JAK3, 100 to 1000 nM.

The values above are taken from patent publication US9586961B2, “Homopiperazine derivatives as protein tyrosine kinase inhibitors and pharmaceutical use thereof” (LEO PHARMA A/S, priority 2010, dated 2017).
